Publication PMC8136874, “The entry reaction of the plant shikimate pathway is subjected to highly complex metabolite-mediated regulation” (The Plant Cell, 2021)
Read-outs that look alike come from different tables or passages of the source.

Columns and labels:
AthDHS1 = biological target: T1, AthDHS1 (Arabidopsis thaliana, UniProt P29976); assay: DHS enzymatic activity assay with recombinant AthDHS1; type: biochemical; conditions: for effect on AthDHS1 activity (in words): 1 mM effector; for IC50: varied effector concentrations, read-out: IC50 of AthDHS1 inhibition
T1 construct: AthDHS1; residues 49–525; hexa-histidine; made in house; host or cells: E. coli Rosetta2 (DE3), pET28a
Protocol: (§1) Unless otherwise noted, DHS enzymatic activity was monitored as previously described ([Liu et al., 2008]), with several optimizations for high-throughput assays with eight-strip PCR tubes and a thermal cycler. The enzyme solution (7.7 µL) containing 50 mM HEPES (pH 7.4) was preincubated with an effector molecule(s) at room temperature for 10 min. For assays using recombinant protein and enzyme fraction isolated from plant leaves, 0.01–0.05 µg and approximately 50 µg of proteins were used, respectively. After adding 0.5 µL of 0.1 M DTT, the samples were further incubated at room temperature for 15 min. […] The enzyme reaction was started by adding 6.8 µL of the substrate solution, then incubated at 37°C for 20 min, and terminated by adding 30 µL of 0.6 M trichloroacetic acid. After brief centrifugation, 5 µL of 200 mM NaIO4 (sodium meta-periodate) in 9 N H3PO4 was added to oxidize the enzymatic product and incubate at 25°C for 20 min. To stop the oxidation reaction, 20 µL of 0.75 M NaAsO2 (sodium arsenite), which was dissolved in 0.5 M Na2SO4 and 0.05 M H2SO4, was immediately mixed. After 5 min of incubation at room temperature, one-third of the sample solution was transferred to a new tube to be mixed with 50 µL of 40 mM thiobarbituric acid and incubated at 99°C for 15 min in a thermal cycler. Developed pink chromophore was extracted by putting the final solutions with 600 µL of cyclohexanone in eight-strip solvent-resistant plastic tubes, mixing vigorously and centrifuging them at 4,500 × g for 3 min to separate water- and cyclohexanone-based layers. The absorbance of the pink supernatant was read at 549 nm with the microplate reader (Infinite 200 PRO, TECAN, Männedorf, Switzerland) to calculate DAHP production with the molar extinction coefficient at 549 nm (ε = 549 nm) of 4.5 × 10^4/M/cm. Reaction mixtures with boiled enzyme or without any substrates were run in parallel and used as negative controls to estimate the background signal for recombinant enzymes or enzymatic fraction from plant tissues, respectively.
(§2) For determination of kinetic parameters, the data of enzymatic activities measured in the presence of various concentration of substrates were calculated with the Michaelis–Menten equation in Graphpad Prism 6 (GraphPad Software, San Diego, CA, USA).

AthDHS2 = biological target: T2, AthDHS2 (Arabidopsis thaliana, UniProt Q00218); assay: DHS enzymatic activity assay with recombinant AthDHS2; type: biochemical; conditions: for IC50: varied effector concentrations, read-out: IC50 of AthDHS2 inhibition
T2 construct: AthDHS2; residues 34–507; hexa-histidine; made in house; host or cells: E. coli Rosetta2 (DE3), pET28a

AthDHS3 = AthDHS3 (Arabidopsis thaliana, UniProt Q9SK84); assay: DHS enzymatic activity assay with recombinant AthDHS3; type: biochemical; conditions: for effect on AthDHS3 activity (in words): 1 mM effector
Protocol: as §1, §2

[1] = tested on: AthDHS1 and AthDHS2 mixtures; assay: DHS assay using mixtures of AthDHS1 and AthDHS2 recombinant enzymes; type: biochemical, Arabidopsis thaliana; conditions: 1 mM effector; molar ratios 0, 0.25, 0.5, 0.75, 1
Protocol: Next, we thought that the presence of non-inhibited DHS isoforms (e.g. AthDHS1) may affect the AAA sensitivity of AthDHS2, given that AthDHSs are known to function as tetrameric or dimeric forms ([Suzich et al., 1985]; [Pinto et al., 1986]; [Webby et al., 2005]). To test this, the recombinant enzymes of AAA non-inhibited AthDHS1 and AAA-inhibited AthDHS2 were mixed with different ratios (0, 0.25, 0.5, 0.75, and 1) and DHS activity assays were conducted with different inhibitors. Based on the kinetic parameters and the regulatory behaviors of individual AthDHSs, the expected level of DHS activity was first calculated and plotted (dotted lines in Figure 5, D, see the “Materials and methods” section). […] Similar results were obtained for the AthDHS2 and AthDHS3 mixture (Figure 5, E).
Unless otherwise noted, DHS enzymatic activity was monitored as previously described ([Liu et al., 2008]), with several optimizations for high-throughput assays with eight-strip PCR tubes and a thermal cycler. The enzyme solution (7.7 µL) containing 50 mM HEPES (pH 7.4) was preincubated with an effector molecule(s) at room temperature for 10 min. For assays using recombinant protein and enzyme fraction isolated from plant leaves, 0.01–0.05 µg and approximately 50 µg of proteins were used, respectively. After adding 0.5 µL of 0.1 M DTT, the samples were further incubated at room temperature for 15 min. […] The enzyme reaction was started by adding 6.8 µL of the substrate solution, then incubated at 37°C for 20 min, and terminated by adding 30 µL of 0.6 M trichloroacetic acid. After brief centrifugation, 5 µL of 200 mM NaIO4 (sodium meta-periodate) in 9 N H3PO4 was added to oxidize the enzymatic product and incubate at 25°C for 20 min. […] The absorbance of the pink supernatant was read at 549 nm with the microplate reader (Infinite 200 PRO, TECAN, Männedorf, Switzerland) to calculate DAHP production with the molar extinction coefficient at 549 nm (ε = 549 nm) of 4.5 × 10^4/M/cm. […]

[2] = tested on: root growth of Arabidopsis Col-0 and dhs mutants; assay: Chemical feeding experiment, root length of 10-day-old seedlings; type: in vivo, Arabidopsis thaliana; conditions: for IC50: Arabidopsis thaliana
Protocol: (§3) Chemical feeding experiments were carried out as described previously ([de Oliveira et al., 2019]) with some modifications. Seedlings were grown on agar plates containing 0.5 MS with 1% sucrose, 0.8% agar, and 2.5 mM MES at pH 5.7 in the growth chamber where we grew other plants in soil. AAAs and/or shikimate were added to autoclaved media after cooling down to temperatures below 55°C. Plants were grown on the same plate side by side to minimize environmental effects, and multiple plates were prepared to obtain replications. Root lengths of 10-day-old seedlings were quantified by ImageJ.

[3] = tested on: DHS activities from maize (Zea mays) shoots; set-up: method as in Graziana and Boudet, 1980; conditions: 1 mM; ref Graziana and Boudet, 1980; cited from earlier work
[4] = tested on: carrot (Daucus carota) DHS; set-up: method as in Suzich et al., 1985; conditions: ref Suzich et al., 1985; cited from earlier work
[5] = tested on: Arabidopsis Col-0 and dhs mutants; type: in vivo, Arabidopsis thaliana; conditions: 300 µM, 14 days after germination
Protocol: as §3

[6] = tested on: shikimate accumulation in Col-0 and dhs mutants; assay: Shikimate content with and without Tyr and/or glyphosate treatment; type: in vivo, Arabidopsis thaliana; conditions: 300 µM, without glyphosate; all genotypes except dhs1
Protocol: Approximately 50–80 mg of fully expanded mature leaves were pooled from multiple plants at the same developmental stages and ground in 800 µL of extraction buffer (v/v 2:1 of methanol and chloroform with 2 µg/mL isovitexin [Millipore-Sigma], 100 µM norvaline [Thermo Fisher Scientific], and 1.25 µg/mL Tocol [Matreya LLC, State College, PA, USA] for internal standards for soluble metabolite analysis by LC–MS and GC–MS and tocopherol analysis by GC–MS, respectively), using 1600 MiniG Tissue Homogenizer (SPEX SamplePrep, Metuchen, USA) and 3-mm glass beads. After adding 600 µL of H2O and then 250 µL of chloroform, polar phase containing amino acids, and non‐polar phase containing tocopherols were separated by centrifugation, dried in new tubes. To detect Trp and AAA-derived metabolites, LC–MS analysis was carried out as previous described with some modification ([Alseekh et al., 2015]). The dried metabolites were resuspended in 70 µL of 80% LC–MS-grade methanol. Two microliters of the sample was injected onto a HSS T3 C18 reversed phase column (100 × 2.1 mm i.d., 1.8-μm particle size; Waters, Milford, CT, USA) and eluted using a 20-min gradient comprising 0.1% formic acid in LC–MS-grade water (solvent A) and 0.1% formic acid in LC–MS-grade acetonitrile (solvent B) at a flow rate of 0.4 mL/min and column temperature of 40°C. The binary linear gradient with following ratios of solvent B was used: 0–1 min, 1%; 1–13 min, 1%–35%; 13–14.5 min, 35%–70%; 14.5–15.5 min, 70%–99%, 15.5–17 min, 99%; 17–17.5 min, 99%–[…]; 17.5–20 min, 1%. The spectra were recorded using full scan mode of negative ion detection, covering a mass range from m/z 100 to 1,500. The resolution was set to 25,000 and the maximum scan time was set to 250 ms. The sheath gas was set to a value of 60, while the auxiliary gas was set to 35. The transfer capillary temperature was set to 150°C, while the heater temperature was adjusted to 300°C. The spray voltage was fixed at 3 kV, with a capillary voltage and a skimmer voltage of 25 and 15 V, respectively. Retention times, MS spectra, and associated peak intensities were extracted from the raw files using the Xcalibur software (Thermo Fisher Scientific). […] For anthocyanin quantification, the polar phase isolated for amino acid analysis was diluted 10 times with water in a new tube. […] Shikimate level was spectrometrically determined based on previous literatures ([Shaner et al., 2005]; [Sharkhuu et al., 2014]). […] After stopping the reaction by adding 100 µL of a termination solution containing 0.6 N sodium hydroxide and 0.22 M sodium sulfite, the absorption at 380 nm was immediately measured with the microplate reader. Shikimate concentration was determined by comparing with a dilution series of the shikimate standards.

[7] = tested on: DHS activities from pea (Pisum sativum) leaves; set-up: method as in Reinink and Borstlap, 1982; conditions: 1 mM; ref Reinink and Borstlap, 1982; cited from earlier work
[8] = tested on: DHS activity from mung bean (Vigna radiata) seedlings; set-up: method as in Rubin and Jensen, 1985; conditions: ref Rubin and Jensen, 1985; cited from earlier work
[9] = tested on: DHS activity from spinach (Spinacia oleracea) leaves; set-up: method as in Doong et al., 1993; conditions: ref Doong et al., 1993; cited from earlier work
[10] = tested on: total DHS activity in Arabidopsis leaf extracts; assay: DHS activity assay of crude extracts from Arabidopsis mature leaves; type: biochemical, Arabidopsis thaliana; conditions: 1 mM; Col-0
[11] = tested on: total DHS activity in spinach leaf extracts; assay: DHS activity assay of crude extracts from spinach mature leaves; type: biochemical, Spinacia oleracea; conditions: 1 mM
Protocol: (§4) Spinach (S. oleracea) leaves were purchased at a local grocery store. For de-etiolated spinach seedlings, spinach was germinated on the soil and grown in the dark for 3 days, followed by exposure to normal growth light for 1 day for de-etiolation. More than 20 g of fully expanded mature leaves or whole de-etiolated seedlings were harvested and ground to a fine powder in a mortar and pestle with liquid nitrogen. After dissolving in 100 mL extraction buffer (20 mM HEPES [pH 7.6], 1 mM DTT and 0.1% β-mercaptoethanol) and filtrating with Miracloth, the samples were centrifuged at 10,000 × g for 10 min and subsequently at 50,000 × g for 30 min. […] The concentrated solution was desalted twice by Sephadex G50 column size-exclusion chromatography (GE Healthcare) into 1 mL of 50 mM HEPES (pH 7.4) and quantified by the Bradford assay ([Bradford, 1976]). […]
(§5) Unless otherwise noted, DHS enzymatic activity was monitored as previously described ([Liu et al., 2008]), with several optimizations for high-throughput assays with eight-strip PCR tubes and a thermal cycler. […] The absorbance of the pink supernatant was read at 549 nm with the microplate reader (Infinite 200 PRO, TECAN, Männedorf, Switzerland) to calculate DAHP production with the molar extinction coefficient at 549 nm (ε = 549 nm) of 4.5 × 10^4/M/cm. […]

[12] = tested on: DHS activity from the spinach seedling extracts; assay: DHS activity assay of crude extracts from de-etiolated spinach seedlings; type: biochemical, Spinacia oleracea; conditions: 1 mM
Protocol: as §4, §5

[13] = read-out: IC50 of root growth impairment
[14] = read-out: concentration giving 50% growth inhibition

T1 sequence (P29976 49-525): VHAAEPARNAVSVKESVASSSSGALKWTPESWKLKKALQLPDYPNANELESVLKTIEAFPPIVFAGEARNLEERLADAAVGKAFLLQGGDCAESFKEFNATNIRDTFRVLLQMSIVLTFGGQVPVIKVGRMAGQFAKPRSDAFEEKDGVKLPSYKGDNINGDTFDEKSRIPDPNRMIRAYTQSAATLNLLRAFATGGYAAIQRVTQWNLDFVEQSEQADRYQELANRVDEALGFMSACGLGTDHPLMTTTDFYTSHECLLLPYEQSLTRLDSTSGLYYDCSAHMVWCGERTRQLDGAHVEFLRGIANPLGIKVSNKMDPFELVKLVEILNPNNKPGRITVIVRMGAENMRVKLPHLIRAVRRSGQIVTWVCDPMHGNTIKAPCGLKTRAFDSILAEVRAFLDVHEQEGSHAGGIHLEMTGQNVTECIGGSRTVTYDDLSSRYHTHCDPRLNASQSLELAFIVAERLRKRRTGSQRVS
T2 sequence (Q00218 34-507): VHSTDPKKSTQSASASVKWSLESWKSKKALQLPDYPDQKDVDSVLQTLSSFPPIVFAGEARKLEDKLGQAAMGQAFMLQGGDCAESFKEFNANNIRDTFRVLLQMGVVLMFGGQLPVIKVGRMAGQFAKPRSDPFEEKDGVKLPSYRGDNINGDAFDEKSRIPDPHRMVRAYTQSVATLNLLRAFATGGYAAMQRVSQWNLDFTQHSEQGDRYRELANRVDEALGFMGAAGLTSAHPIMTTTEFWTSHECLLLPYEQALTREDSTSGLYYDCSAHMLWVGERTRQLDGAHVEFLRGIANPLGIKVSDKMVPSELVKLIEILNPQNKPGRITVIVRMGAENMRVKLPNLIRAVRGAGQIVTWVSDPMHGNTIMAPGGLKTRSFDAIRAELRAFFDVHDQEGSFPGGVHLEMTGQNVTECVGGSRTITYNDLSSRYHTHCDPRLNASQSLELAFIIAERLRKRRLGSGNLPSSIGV
AthDHS3, sequence (Q9SK84 entry or part of it): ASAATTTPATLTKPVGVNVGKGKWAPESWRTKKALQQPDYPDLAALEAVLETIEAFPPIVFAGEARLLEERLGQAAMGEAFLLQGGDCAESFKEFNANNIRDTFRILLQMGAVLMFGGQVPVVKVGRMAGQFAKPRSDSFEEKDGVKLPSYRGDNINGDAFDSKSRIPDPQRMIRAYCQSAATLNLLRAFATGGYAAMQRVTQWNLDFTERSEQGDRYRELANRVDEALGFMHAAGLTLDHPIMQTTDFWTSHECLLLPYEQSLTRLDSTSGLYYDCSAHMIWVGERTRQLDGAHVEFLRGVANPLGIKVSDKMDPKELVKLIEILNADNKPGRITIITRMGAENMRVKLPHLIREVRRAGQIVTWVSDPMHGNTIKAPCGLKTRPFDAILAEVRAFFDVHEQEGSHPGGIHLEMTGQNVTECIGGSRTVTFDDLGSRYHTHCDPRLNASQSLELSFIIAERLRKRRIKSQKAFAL

| Compound | effect on AthDHS1 activity (in words) (AthDHS1) | IC50 (AthDHS2) | effect on AthDHS3 activity (in words) (AthDHS3) | observed DHS activity of the enzyme mixtures versus theoretically calculated activity [1] | IC50 [2, 13] | IC50 [2, 14] | IC50 (AthDHS1) | effect on total DHS activity of Arabidopsis mature leaf extract [10] | effect on total DHS activity of spinach mature leaf extract [11] | effect on DHS activity of de-etiolated spinach seedling extract [12] | other results |
| --- | --- | --- | --- | --- | --- | --- | --- | --- | --- | --- | --- |
| N[C@@H](Cc1c[nH]c2ccccc12)C(=O)O [Trp, L-tryptophan] | significantly activated | 225 µM | activated | significantly higher than theoretically calculated activities | 140 µM | > 300 µM |  |  |  |  | concentration that specifically impaired root growth ([2]; dhs3 mutant): ≥ 100 µM; inhibition of DHS activity [3]: 50%; effect on DHS activity [4]: activation |
| N[C@@H](Cc1ccc(O)cc1)C(=O)O [Tyr, L-tyrosine] | significantly activated |  |  | significantly higher than theoretically calculated activities | 79 µM | > 300 µM |  |  |  |  | concentration that specifically impaired root growth ([2]; dhs1 mutant): ≥ 100 µM; effect of the added compound on Trp-mediated root growth inhibition of dhs3 ([2]; media with 300 µM Trp, AAAs added at 300 µM, shikimate at 500 µM): not recovered; phenotype of newly growing leaves ([5]; Col-0 and dhs3): cup-like shape; shoot phenotype ([5]; dhs1): very small and pale; cup-shaped leaf phenotype ([5]; dhs2): did not appear; effect on shikimate level [6]: did not alter the shikimate level; inhibition of DHS activity [7]: 60% |
| N[C@@H](CC1(C(=O)O)C=CC(O)C=C1)C(=O)O (some centres unmarked) [arogenate] | did not significantly affect |  | did not significantly affect |  |  |  |  |  |  |  | inhibition of AthDHS2 activity (AthDHS2; 1 mM effector): ~75%; concentration beyond which DHS activity is inhibited [8]: > 0.4 mM; concentration beyond which DHS activity is inhibited [9]: > 1 mM |
| O=C(O)/C=C/c1ccc(O)c(O)c1 [caffeate] | completely inhibited |  | completely inhibited |  |  |  | 49.7 µM | more than half | more than half | significantly reduced | IC50 (AthDHS3): 53.4 µM |
| C=C(O[C@@H]1C=C(C(=O)O)C=C[C@H]1O)C(=O)O [chorismate] | completely inhibited | 52.5 µM | completely inhibited |  |  |  | 97.3 µM | more than half | more than half | significantly reduced | effect on AthDHS2 activity (in words) (AthDHS2; 1 mM effector): completely inhibited; IC50 (AthDHS3; varied effector concentrations, read-out: IC50 of AthDHS3 inhibition): 83 µM |
